Assay [1] addresses T1, Beta-secretase 1 (Homo sapiens, UniProt P56817). Description: Inhibition of human BACE1 expressed in HEK293 cells assessed as reduction in soluble APPbeta level after 4 hrs by Western blot analysis. It counts as cell-based. More on the design: concentration or dose not given beside the values.
In assay [2] the target is T1, Beta-secretase 1. Description: Inhibition of human BACE1.
Assay [3] has as its target T1, Beta-secretase 1. Description: Inhibition of human BACE1 expressed in HEK293 cells assessed as reduction in soluble APPalpha level after 4 hrs by Western blot analysis. It counts as cell-based. In general terms: A western blot detects proteins with antibodies after separation by electrophoresis.

The structures appear in SMILES notation. Activity calls are given as the source filed them. The rule behind the calls is not given here.

The text below walks through data of ChEMBL document CHEMBL1155037, “BACE1 inhibitory effects of lavandulyl flavanones from Sophora flavescens” (Bioorg Med Chem, 2008).

T1 sequence (P56817 whole entry): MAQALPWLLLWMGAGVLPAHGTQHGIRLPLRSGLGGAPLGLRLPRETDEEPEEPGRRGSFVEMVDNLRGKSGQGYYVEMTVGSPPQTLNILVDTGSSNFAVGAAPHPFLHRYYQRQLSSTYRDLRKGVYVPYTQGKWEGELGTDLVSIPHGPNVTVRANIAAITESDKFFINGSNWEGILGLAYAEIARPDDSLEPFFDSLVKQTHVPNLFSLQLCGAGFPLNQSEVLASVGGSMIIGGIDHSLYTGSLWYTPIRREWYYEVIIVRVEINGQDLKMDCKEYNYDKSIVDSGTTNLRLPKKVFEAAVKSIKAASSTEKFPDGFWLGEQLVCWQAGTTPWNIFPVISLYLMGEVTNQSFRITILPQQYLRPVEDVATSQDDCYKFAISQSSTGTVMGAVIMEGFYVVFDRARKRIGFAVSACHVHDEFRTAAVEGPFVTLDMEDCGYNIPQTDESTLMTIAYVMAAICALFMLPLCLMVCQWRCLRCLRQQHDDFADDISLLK

As usually defined, the IC50 is the midpoint of a concentration-inhibition curve. By Ki is commonly meant a measure of affinity in units of concentration, obtained from inhibition or displacement. As for `C=C(C)[C@H](CC=C(C)C)Cc1c(O)cc(O)c2c1O[C@H](c1ccc(O)cc1OC)CC2=O` [LEACHIANONE A], the Activity in assay [1] is 40.7%. In assay [2], this molecule returned a 50% inhibitory concentration (IC50) of 8.4 µM and a Ki of 3.9 µM. For the same molecule, the Activity entry in assay [3] is “Dose-dependent effect”.
The corresponding values for `C=C(C)[C@H](CC=C(C)C)Cc1c(O)cc(OC)c2c1O[C@H](c1ccc(O)cc1OC)CC2=O` are 51.1%, 6.7 µM, 10.6 µM and “Active”.
On to `C=C(C)[C@H](CC=C(C)C)Cc1c(O)cc(O)c2c1O[C@H](c1ccc(O)cc1O)CC2=O` [SOPHORAFLAVANONE G], for which the Activity in assay [1] came out at 56%. In assay [2], this molecule displayed an IC50 of 5.2 µM and a Ki of 1.1 µM. Further, in assay [3], the result was Active.
For `C=C(C)[C@H](CC=C(C)C)Cc1c(O)cc(O)c2c1O[C@H](c1ccccc1O)CC2=O` [KUSHENOL A], in that order: 61.8%, 2.6 µM, 3 µM and “Active”.
In assay [2], `C=C(C)[C@H](CCC(C)(C)O)Cc1c(O)cc(O)c2c1O[C@H](c1ccccc1O)CC2=O` [KUSHENOL T] had a 50% inhibitory concentration (IC50) of 36.8 µM.
On to `C=C(C)C(CC=C(C)C)Cc1c(O)cc(OC)c2c1O[C@H](c1ccc(O)cc1O)CC2=O` (stereo partly drawn) [KURARINONE], for which the Activity in assay [1] stood at 51.9%. Further, in assay [2], the half-inhibitory concentration (IC50) worked out at 3.3 µM and affinity was put at a Ki of 7.2 µM. Besides, the outcome in assay [3] was Active.
In turn, `COc1cc(O)c(CC=C(C)C)c2c1C(=O)CC(c1ccc(O)cc1)O2` (stereo not drawn) [ISOXANTHOHUMOL] registered a 50% inhibitory concentration (IC50) in assay [2] of 27.7 µM.
Same read-out and setting: next, `C=C(C)[C@H](CCC(C)(C)O)Cc1c(O)cc(OC)c2c1O[C@H](c1ccc(O)cc1O)CC2=O` [KURARINOL]: 39.2 µM.
